Measured values as given in US6511997B1, “Aminopyrazole derivatives” (Teikoku Hormone Mfg. Co., Ltd., priority 1998, dated 2003).

melting point | SMILES
210.2 to 211.5 °C | C[C@H](N)C(=O)Nc1n[nH]c(-c2ccc(F)cc2)c1-c1ccncc1.Cl
205.3 to 206.4 °C | CC(C)[C@H](N)C(=O)Nc1n[nH]c(-c2ccc(F)cc2)c1-c1ccncc1.Cl
289.2 to 290.4 °C | O=C(Cc1ccccc1)Nc1n[nH]c(-c2ccc(F)cc2)c1-c1ccncc1 [Example 1, 5-(4-fluorophenyl)-3-phenylacetylamino-4-(4-pyridyl)pyrazole]
253.5 to 255.1 °C | O=C(CCc1ccccc1)Nc1n[nH]c(-c2ccc(F)cc2)c1-c1ccncc1 [Example 2, 5-(4-Fluorophenyl)-3-(3-phenylpropionylamino)-4-(4-pyridyl)pyrazole]
265.1 to 266.2 °C | COc1ccc(CC(=O)Nc2n[nH]c(-c3ccc(F)cc3)c2-c2ccncc2)cc1 [Example 3, 5-(4-Fluorophenyl)-3-(4-methoxyphenylacetylanino)-4-(4-pyridyl)pyrazole]
240.6 to 241 °C | CC(C(=O)Nc1n[nH]c(-c2ccc(F)cc2)c1-c1ccncc1)c1ccccc1 (stereo not drawn) [Example 5, 5-(4-Fluorophenyl)-3-(2-phenylpropionylamino)-4-(4-pyridyl)pyrazole]
273.2 to 277.3 °C | O=C(Cc1ccc(Cl)cc1)Nc1n[nH]c(-c2ccc(F)cc2)c1-c1ccncc1 [Example 6, 3-(4-Chlorophenylacetylamino)-5-(4-fluorophenyl)-4-(4-pyridyl)pyrazole]
262.8 to 264.7 °C | Cc1ccc(CC(=O)Nc2n[nH]c(-c3ccc(F)cc3)c2-c2ccncc2)cc1 [Example 7, 5-(4-Fluorophenyl)-3-(4-methylphenylacetylamino)-4-(4-pyridyl)pyrazole]
282.1 to 288.4 °C | O=C(Cc1ccc(C(F)(F)F)cc1)Nc1n[nH]c(-c2ccc(F)cc2)c1-c1ccncc1 [Example 8, 5-(4-Fluorophenyl)-4-(4-pyridyl)-3-(4-trifluoromethylphenylacetylamino)pyrazole]
257.3 to 264.1 °C | O=C(Cc1ccccc1)Nc1n[nH]c(-c2ccccc2)c1-c1ccncc1 [Example 9, 3-Phenylacetylamino-5-phenyl-4-(4-pyridyl)pyrazole]
273.4 to 275.3 °C | O=C(Cc1ccccc1)Nc1n[nH]c(-c2ccc(F)cc2)c1-c1ccnc2ccccc12 [Example 10, 5-(4-Fluorophenyl)-4-(4-quinolyl)-3-phenylacetylaminopyrazole]
264.6 to 268.3 °C | O=C(Cc1cccs1)Nc1n[nH]c(-c2ccc(F)cc2)c1-c1ccncc1 [Example 11, 5-(4-Fluorophenyl)-4-(4-pyridyl)-3-(2-thienylacetylamino)pyrazole]
270.5 to 276.1 °C | O=C(Nc1n[nH]c(-c2ccc(F)cc2)c1-c1ccncc1)c1ccccc1 [Example 13, 3-Benzoylamino-5-(4-fluorophenyl)-4-(4-pyridyl)pyrazole]
264 to 266 °C | O=C(CO)Nc1n[nH]c(-c2ccc(F)cc2)c1-c1ccncc1 [Example 14, 5-(4-Fluorophenyl)-3-hydroxyacetylamino-4-(4-pyridyl)pyrazole]
246 to 248 °C | COCC(=O)Nc1n[nH]c(-c2ccc(F)cc2)c1-c1ccncc1 [Example 15, 5-(4-Fluorophenyl)-3-methoxyacetylamino-4-(4-pyridyl)pyrazole]
272 to 275 °C | CCC(=O)Nc1n[nH]c(-c2ccc(F)cc2)c1-c1ccncc1 [Example 17, 5-(4-Fluorophenyl)-3-propionylamino-4-(4-pyridyl)pyrazole]
291.1 to 294 °C | CC(C)C(=O)Nc1n[nH]c(-c2ccc(F)cc2)c1-c1ccncc1 [Example 18, 5-(4-Fluorophenyl)-3-isobutyrylamino-4-(4-pyridyl)pyrazole]
291.1 to 294 °C | CC(C)CC(=O)Nc1n[nH]c(-c2ccc(F)cc2)c1-c1ccncc1 [Example 19, 5-(4-Fluorophenyl)-3-isovalerylamino-4-(4-pyridyl)pyrazole]
273.7 to 275.8 °C | CCCCC(=O)Nc1n[nH]c(-c2ccc(F)cc2)c1-c1ccncc1 [Example 20, 5-(4-Fluorophenyl)-4-(4-pyridyl)-3-valerylaminopyrazole]
217.9 to 220.6 °C | CC(C)(C)C(=O)Nc1n[nH]c(-c2ccc(F)cc2)c1-c1ccncc1 [Example 21, 5-(4-Fluorophenyl)-4-(4-pyridyl)-3-pivaloylaminopyrazole]
260.1 to 265.2 °C | O=C(Nc1n[nH]c(-c2ccc(F)cc2)c1-c1ccncc1)C(F)(F)F [Example 22, 5-(4-fluorophenyl)-4-(4-pyridyl)-3-trifluoroacetylaminopyrazole]

melting point | SMILES
296.3 to 299.9 °C | O=C(CC1CCCCC1)Nc1n[nH]c(-c2ccc(F)cc2)c1-c1ccncc1 [Example 23, 3-cyclohexylacetylamino-5-(4-fluorophenyl)-4-(4-pyridyl)pyrazole]
238.8 to 240.1 °C | O=C(Cc1ccccc1Cl)Nc1n[nH]c(-c2ccc(F)cc2)c1-c1ccncc1 [Example 24, 3-(2-chlorophenylacetylamino)-5-(4-fluorophenyl)-4-(4-pyridyl)pyrazole]
249.7 to 250.8 °C | O=C(Cc1cccc(Cl)c1)Nc1n[nH]c(-c2ccc(F)cc2)c1-c1ccncc1 [Example 25, 3-(3-Chlorophenylacetylamino)-5-(4-fluorophenyl)-4-(4-pyridyl)pyrazole]
259.4 to 261.2 °C | O=C(Cc1ccc(F)cc1)Nc1n[nH]c(-c2ccc(F)cc2)c1-c1ccncc1 [Example 26, 5-(4-Fluorophenyl)-3-(4-fluorophenylacetylamino)-4-(4-pyridyl)pyrazole]
299.3 to 302.3 °C | O=C(Cc1ccc([N+](=O)[O-])cc1)Nc1n[nH]c(-c2ccc(F)cc2)c1-c1ccncc1 [Example 27, 5-(4-Fluorophenyl)-3-(4-nitrophenylacetylamino)-4-(4-pyridyl)pyrazole]
279.6 to 282.9 °C (dec.) | O=C(Cc1ccsc1)Nc1n[nH]c(-c2ccc(F)cc2)c1-c1ccncc1 [Example 28, 5-(4-Fluorophenyl)-4-(4-pyridyl)-3-(3-thienylacetylamino)pyrazole]
248.3 to 251.8 °C (dec.) | O=C(Cc1ccncc1)Nc1n[nH]c(-c2ccc(F)cc2)c1-c1ccncc1 [Example 29, 5-(4-Fluorophenyl)-4-(4-pyridyl)-3-(4-pyridylacetylamino)pyrazole]
≥ 325 °C | O=C(Cc1c(F)c(F)c(F)c(F)c1F)Nc1n[nH]c(-c2ccc(F)cc2)c1-c1ccncc1 [Example 31, 5-(4-Fluorophenyl)-3-(2,3,4,5,6-pentafluorophenylacetylamino)-4-(4-pyridyl)pyrazole]
266.5 to 269.2 °C | O=C(Nc1n[nH]c(-c2ccc(F)cc2)c1-c1ccncc1)C(c1ccccc1)c1ccccc1 [Example 32, 3-Diphenylacetylamino-5-(4-fluorophenyl)-4-(4-pyridyl)pyrazole]
239.1 to 241.5 °C | CC(C)(C(=O)Nc1n[nH]c(-c2ccc(F)cc2)c1-c1ccncc1)c1ccccc1 [Example 33, 3-(α,α-Dimethylphenylacetylamino)-5-(4-fluorophenyl)-4-(4-pyridyl)pyrazole]
207 to 208 °C | Cn1nc(-c2ccc(F)cc2)c(-c2ccncc2)c1NC(=O)Cc1cc(F)ccc1F [Example 35, 5-(2,5-difluorophenylacetylamino)-3-(4-fluorophenyl)-1-methyl-4-(4-pyridyl)pyrazole]
216.9 to 224.6 °C | Cn1nc(-c2ccc(F)cc2)c(-c2ccncc2)c1NC(=O)Cc1c(F)cccc1Cl [Example 36, 5-(2-Chloro-6-fluorophenylacetylamino)-3-(4-fluorophenyl)-1-methyl-4-(4-pyridyl)pyrazole]
205.1 to 207 °C | Cn1nc(-c2ccc(F)cc2)c(-c2ccncc2)c1NC(=O)Cc1ccc(Cl)c(Cl)c1 [Example 37, 5-(3,4-Dichlorophenylacetylamino)-3-(4-fluorophenyl)-1-methyl-4-(4-pyridyl)pyrazole]
252.5 to 256.7 °C | Cn1nc(-c2ccc(F)cc2)c(-c2ccncc2)c1NC(=O)Cc1c(Cl)cccc1Cl [Example 38, 5-(2,6-Dichlorophenylacetylamino)-3-(4-fluorophenyl)-1-methyl-4-(4-pyridyl)pyrazole]
229 to 232.7 °C | Cn1nc(-c2ccc(F)cc2)c(-c2ccncc2)c1NC(=O)Cc1ccc(F)cc1Cl [Example 39, 5-(2-Chloro-4-fluorophenylacetylamino)-3-(4-fluorophenyl)-1-methyl-4-(4-pyridyl)pyrazole]
225.5 to 228.3 °C | Cn1nc(-c2ccc(F)cc2)c(-c2ccncc2)c1NC(=O)Cc1ccc(F)cc1F [Example 40, 5-(2,4-Difluorophenylacetylamino)-3-(4-fluorophenyl)-1-methyl-4-(4-pyridyl)pyrazole]
224.3 to 225.4 °C | Cn1nc(-c2ccc(F)cc2)c(-c2ccncc2)c1NC(=O)Cc1ccc(Cl)cc1Cl [Example 41, 5-(2,4-Dichlorophenylacetylamino)-3-(4-fluorophenyl)-1-methyl-4-(4-pyridyl)pyrazole]
128.1 to 129.6 °C | COc1ccc(CC(=O)Nc2c(-c3ccncc3)c(-c3ccc(F)cc3)nn2C)cc1OC [Example 42, 5-(3,4-Dimethoxyphenylacetylamino)-3-(4-fluorophenyl)-1-methyl-4-(4-pyridyl)pyrazole]
113.6 to 116.5 °C | Cn1nc(-c2ccc(F)cc2)c(-c2ccncc2)c1NC(=O)Cc1ccc2c(c1)OCO2 [Example 43, 3-(4-Fluorophenyl)-1-methyl-5-(3,4-methylenedioxyphenylacetylamino)-4-(4-pyridyl)pyrazole]
174.4 to 180.3 °C | COc1ccc(CC(=O)Nc2c(-c3ccncc3)c(-c3ccc(F)cc3)nn2C)cc1OC [Example 44, 5-(3,4-Dimethoxyphenylacetylamino)-3-(4-fluorophenyl)-1-methyl-4-(4-pyridyl)pyrazole]
228.3 to 230.6 °C | Cn1nc(-c2ccc(F)cc2)c(-c2ccncc2)c1NC(=O)Cc1cc(C(F)(F)F)cc(C(F)(F)F)c1 [Example 45, 5-(3,5-Ditrifluoromethylphenylacetylamino)-3-(4-fluorophenyl)-1-methyl-4-(4-pyridyl)pyrazole]
